Among the data in the RepoRT retention time repository are LC retention time values, retold here.

The data set is described as follows: RP, Waters ACQUITY UPLC BEH C8, 100 × 2.1 mm, 1.7 µm, 55 °C, 0.6 mL/min, estimated dead time 0.37 min; A: 50% water + 25% acetonitrile + 25% isopropanol + 0.05% acetic acid + 20 µM phosphoric acid + 5 mM ammonium acetate; B: 50% acetonitrile + 50% isopropanol + 0.05% acetic acid + 5 mM ammonium acetate; gradient (min/%B) 0/1 0.1/1 2/30 11.5/90 12/99.9 12.5/99.9 12.55/65 12.65/30 12.75/1 12.95/1 13.25/1. To be noted: stereoisomer not certain.
Take `CC1=CCCC(C)(C)C1/C=C/C(C)=C/C=C/C(C)=C/C=C/C=C(C)/C=C/C=C(C)/C=C/C1=C(C)CCCC1(C)C` (stereo not drawn) [Alpha-carotene]: the LC retention time is 8.56 min. The result for `C=C1C=CCC(C)(C)C1C=CC(C)=CC=CC(C)=CC=CC=C(C)C=CC=C(C)C=CC1=C(C)CC(O)CC1(C)C` (stereo not drawn) [Anhydrolutein I] reads 5.77 min. Turning to `CCCCCCCCCCCCCCCCCCCC(=O)OC(CC(=O)[O-])C[N+](C)(C)C` (stereo not drawn) [Arachidyl carnitine CAR(20:0)], the LC retention time was 2.88 min. As to `CC1=C(/C=C/C(C)=C/C=C/C(C)=C/C=C/C=C(C)/C=C/C=C(C)/C=C/C2=C(C)CCCC2(C)C)C(C)(C)CCC1` [Beta-carotene], the LC retention time is 8.56 min. To `CC(C=CC=C(C)C=CC1=C(C)CCCC1(C)C)=CC=CC=C(C)C=CC=C(C)C=CC1=C(C)CC(O)CC1(C)C` (stereo not drawn) [Beta-cryptoxanthin] belongs 6.41 min. The result for `CCCCCCCCCCCC=CC(O)C(CO)NC(=O)CCCCCCCCCCCCCCCCCCC` (stereo not drawn) [Cer(d16:1/20:0)] reads 7.27 min. To `CCCCCCCCCCCC=CC(O)C(CO)NC(=O)CCCCCCCCCCCCCCCCCCCCC` (stereo not drawn) [Cer(d16:1/22:0)] belongs 7.93 min. `CCCCCCCCCCCC=CC(O)C(CO)NC(=O)CCCCCCCCCCCCCCCCCCCCCCC` (stereo not drawn) [Cer(d16:1/24:0)]: the LC retention time is 8.54 min. To `CCCCCCCCCCCCCCCCCCCCCC(=O)NC(CO)C(O)CCCCCCCCCCCCCCC` (stereo not drawn) [Cer(d18:0/22:0)] belongs 8.61 min; to `CCCCCCCCCCCCCCCCCCCCCCCC(=O)NC(CO)C(O)CCCCCCCCCCCCCCC` (stereo not drawn) [Cer(d18:0/24:0)], 9.14 min.

In the case of `CCCCCCCCCCCCCC=CC(O)C(CO)NC(=O)CCCCCCCCCCCCCCC` (stereo not drawn) [Cer(d18:1/16:0)], the LC retention time was 6.5 min.

Consider `CCCCCCCCCCCCCC=CC(O)C(CO)NC(=O)CCCCCCCCCCCCCCCCC` (stereo not drawn) [Cer(d18:1/18:0)], for which the LC retention time is 7.19 min. Turning to `CCCCCCCCCCCCCC=CC(O)C(CO)NC(=O)CCCCCCCCCCCCCCCCCCC` (stereo not drawn) [Cer(d18:1/20:0)], the LC retention time is 7.86 min. To `CCCCCCCCCCCCCC=CC(O)C(CO)NC(=O)CCCCCCCCCCCCCCCCCCCCC` (stereo not drawn) [Cer(d18:1/22:0)] belongs 8.46 min; to `CCCCCCCCCCCCCC=CC(O)C(CO)NC(=O)CCCCCCCCCCCCCCCCCCCCCCC` (stereo not drawn) [Cer(d18:1/24:0)], 9 min. For `CCCCCCCCCCCCCC=CC(O)C(CO)NC(=O)CCCCCCCCCCCCCCCCCCCCCCCC` (stereo not drawn) [Cer(d18:1/25:0)], the LC retention time is 9.26 min.

Take `CC(C)CCCC(C)C1CCC2C3CC=C4CC(O)CCC4(C)C3CCC12C` (stereo not drawn) [Cholesterol]: the LC retention time was 4.54 min.

For `CCCCCCCCCCCCCCCC(=O)OCC(CO)OC(=O)CCCCCCCCCCCCCCC` (stereo not drawn) [DG(16:0/16:0)], the LC retention time was 7.6 min. The result for `CCCCCCCCCCCCCCCCCC(=O)OCC(CO)OC(=O)CCCCCCCCCCCCCCC` (stereo not drawn) [DG(18:0/16:0)] reads 8.19 min; that for `CCCCCCCCCC(=O)OC(CC(=O)[O-])C[N+](C)(C)C` (stereo not drawn) [Decanoylcarnitine CAR(10:0)], 0.609 min; that for `Cc1cc(O)cc2c1OC(C)(CCCC(C)CCCC(C)CCCC(C)C)CC2` (stereo not drawn) [Delta-Tocopherol], 5.02 min. The result for `CC(C)=CCCC(C)=CC=CC(C)=CC=CC(C)=CC=CC=C(C)C=CC=C(C)C=CC1=C(C)CCCC1(C)C` [Gamma-carotene] reads 8.22 min; that for `CCCCCCCCCCCCCCCCCCCCCCCCCC(=O)OC(CC(=O)[O-])C[N+](C)(C)C` (stereo not drawn) [Hexacosanoylcarnitine CAR(26:0)], 5.15 min; that for `CCCCCCCCCCCCCCCC(=O)OCC(O)COP(=O)(O)O` (stereo not drawn) [LPA(16:0/0:0)], 1.58 min.

`CCCCCCCCCCCCCC(=O)OC(CO)COP(=O)([O-])OCC[N+](C)(C)C` (stereo not drawn) [LPC(0:0/14:0)]: the LC retention time was 1.27 min. The result for `CCCCCCCCCCCCCCCC(=O)OC(CO)COP(=O)([O-])OCC[N+](C)(C)C` (stereo not drawn) [LPC(0:0/16:0)] reads 1.75 min; that for `CCCCCCCCCCCCCCCCCC(=O)OC(CO)COP(=O)([O-])OCC[N+](C)(C)C` (stereo not drawn) [LPC(0:0/18:0)], 2.3 min; that for `CCCCCCCCCCCCCC(=O)OCC(O)COP(=O)([O-])OCC[N+](C)(C)C` (stereo not drawn) [LPC(14:0/0:0)], 1.36 min. With `CCCCCCCCCCCCCCC(=O)OCC(O)COP(=O)([O-])OCC[N+](C)(C)C` (stereo not drawn) [LPC(15:0/0:0)], the LC retention time was 1.61 min.

In the case of `CCCCCCCCCCCCCCCC(=O)OCC(O)COP(=O)([O-])OCC[N+](C)(C)C` (stereo not drawn) [LPC(16:0/0:0)], the LC retention time is 1.87 min. Consider `CCCCCCCCCCCCCCCCC(=O)OCC(O)COP(=O)([O-])OCC[N+](C)(C)C` (stereo not drawn) [LPC(17:0/0:0)], for which the LC retention time is 2.14 min.

Turning to `CCCCCCCCCCCCCCCCCC(=O)OCC(O)COP(=O)([O-])OCC[N+](C)(C)C` (stereo not drawn) [LPC(18:0/0:0)], the LC retention time is 2.42 min. In the case of `CCCCCCCCCCCCCCCCCCC(=O)OCC(O)COP(=O)([O-])OCC[N+](C)(C)C` (stereo not drawn) [LPC(19:0/0:0)], the LC retention time was 2.7 min. To `CCCCCCCCCCCCCCCCCCCC(=O)OCC(O)COP(=O)([O-])OCC[N+](C)(C)C` (stereo not drawn) [LPC(20:0/0:0)] belongs 3.02 min; to `CCCCCCCCCCCCCCCCCCCCCC(=O)OCC(O)COP(=O)([O-])OCC[N+](C)(C)C` (stereo not drawn) [LPC(22:0/0:0)], 3.73 min; to `CCCCCCCCCCCCCCCCCCCCCCCC(=O)OCC(O)COP(=O)([O-])OCC[N+](C)(C)C` (stereo not drawn) [LPC(24:0/0:0)], 4.52 min.

As to `CCCCCCCCCCCCCCCCOCC(O)COP(=O)([O-])OCC[N+](C)(C)C` (stereo not drawn) [LPC(O-16:0/0:0)], the LC retention time is 2.09 min. The result for `CCCCCCCCCCCCCCCCCCOCC(O)COP(=O)([O-])OCC[N+](C)(C)C` (stereo not drawn) [LPC(O-18:0/0:0)] reads 2.66 min. The result for `CCCCCCCCCCCCCCCCCCCCOCC(O)COP(=O)([O-])OCC[N+](C)(C)C` (stereo not drawn) [LPC(O-20:0/0:0)] reads 3.31 min; that for `CCCCCCCCCCCCCCC=COCC(O)COP(=O)([O-])OCC[N+](C)(C)C` (stereo not drawn) [LPC(P-16:0/0:0)], 2.09 min; that for `CCCCCCCCCCCCCCCCC=COCC(O)COP(=O)([O-])OCC[N+](C)(C)C` (stereo not drawn) [LPC(P-18:0/0:0)], 2.65 min. The result for `CCCCCCCCCCCCCCCCCC(=O)OC(CO)COP(=O)(O)OCCN` (stereo not drawn) [LPE(0:0/18:0)] reads 2.38 min; that for `CCCCCCCCCCCCCCCC(=O)OCC(O)COP(=O)(O)OCCN` (stereo not drawn) [LPE(16:0/0:0)], 1.93 min; that for `CCCCCCCCCCCCCCCCCC(=O)OCC(O)COP(=O)(O)OCCN` (stereo not drawn) [LPE(18:0/0:0)], 2.48 min. Turning to `CCCCCCCCCCCCCCCCC=COCC(O)COP(=O)(O)OCCN` (stereo not drawn) [LPE(P-18:0/0:0)], the LC retention time is 2.75 min. To `CCCCCCCCCCCCCC=CC(O)C(COC1OC(CO)C(OC2OC(CO)C(O)C(O)C2O)C(O)C1O)NC(=O)CCCCCCCCCCCCCCC` (stereo not drawn) [LacCer(d18:1/16:0)] belongs 5.75 min. Regarding `CCCCCCCCCCCCCC=CC(O)C(COC1OC(CO)C(OC2OC(CO)C(O)C(O)C2O)C(O)C1O)NC(=O)CCCCCCCCCCCCCCCCCCCCC` (stereo not drawn) [LacCer(d18:1/22:0)], the LC retention time was 7.86 min. To `CCCCCCCCCCCCCC=CC(O)C(COC1OC(CO)C(OC2OC(CO)C(O)C(O)C2O)C(O)C1O)NC(=O)CCCCCCCCCCCCCCCCCCCCCCC` (stereo not drawn) [LacCer(d18:1/24:0)] belongs 8.4 min; to `CCCCCCCCCCCC(=O)OC(CC(=O)[O-])C[N+](C)(C)C` (stereo not drawn) [Lauroylcarnitine CAR(12:0)], 0.876 min.

With `CC(C=CC=C(C)C=CC1=C(C)CC(O)CC1(C)C)=CC=CC=C(C)C=CC=C(C)C=CC1C(C)=CC(O)CC1(C)C` (stereo not drawn) [Luteine], the LC retention time was 3.74 min. Turning to `CCCCCCCC(=O)OC(CC(=O)O)C[N+](C)(C)C` (stereo not drawn) [Octanoylcarnitine CAR(8:0)], the LC retention time is 0.462 min. To `CCCCCCCCCCCCCCCC(=O)OCC(COP(=O)([O-])OCC[N+](C)(C)C)OC(=O)CCCCCCCCCCCCCC` (stereo not drawn) [PC(16:0/15:0)] belongs 5.97 min; to `CCCCCCCCCCCCCCCC(=O)OCC(COP(=O)([O-])OCC[N+](C)(C)C)OC(=O)CCCCCCCCCCCCCCC` (stereo not drawn) [PC(16:0/16:0)], 6.38 min. The result for `CCCCCCCCCCCCCCCCC(=O)OC(COC(=O)CCCCCCCCCCCCCCC)COP(=O)([O-])OCC[N+](C)(C)C` (stereo not drawn) [PC(16:0/17:0)] reads 6.63 min.

For `CCCCCCCCCCCCCCCCCC(=O)OCC(COP(=O)([O-])OCC[N+](C)(C)C)OC(=O)CCCCCCCCCCCCCCCCC` (stereo not drawn) [PC(18:0/18:0)], the LC retention time is 7.67 min. The result for `CCCCCCCCCCCCCCCCOCC(COP(=O)([O-])OCC[N+](C)(C)C)OC(=O)CCCCCCCCCCCCC` (stereo not drawn) [PC(O-16:0/14:0)] reads 6.13 min; that for `CCCCCCCCCCCCCCCCOCC(COP(=O)([O-])OCC[N+](C)(C)C)OC(=O)CCCCCCCCCCCCCC` (stereo not drawn) [PC(O-16:0/15:0)], 6.47 min; that for `CCCCCCCCCCCCCCCCOCC(COP(=O)([O-])OCC[N+](C)(C)C)OC(=O)CCCCCCCCCCCCCCC` (stereo not drawn) [PC(O-16:0/16:0)], 6.81 min.

Turning to `CCCCCCCCCCCCCCCCCCOCC(COP(=O)([O-])OCC[N+](C)(C)C)OC(=O)CCCCCCCCCCCCCCC` (stereo not drawn) [PC(O-18:0/16:0)], the LC retention time is 7.47 min. Turning to `CCCCCCCCCCCCCCCC(=O)OC(CC(=O)[O-])C[N+](C)(C)C` (stereo not drawn) [Palmitoylcarnitine CAR(16:0)], the LC retention time was 1.75 min. To `CC(C=CC1=C(C)CCCC1(C)C)=CC=CC(C)=CCO` [Retinol] belongs 2.3 min; to `CCCCCCCCCCCC=CC(O)C(COP(=O)([O-])OCC[N+](C)(C)C)NC(=O)CCCCCCCCCCCCCCCCCCC` (stereo not drawn) [SM(d16:1/20:0)], 6.5 min. The result for `CCCCCCCCCCCC=CC(O)C(COP(=O)([O-])OCC[N+](C)(C)C)NC(=O)CCCCCCCCCCCCCCCCCCCCC` (stereo not drawn) [SM(d16:1/22:0)] reads 7.23 min.
